Experimental data from PubChem BioAssay (NCI).
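Tested at 5 concentrations; 48 h exposure; 96-well plates; endpoints linearly interpolated, else capped at highest concentration. The concentration for 50% growth inhibition is given as GI50. The concentration for full growth arrest is given as TGI.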

Columns and labels:
Experiment in all cases: NCI tumour cell line growth inhibition, 48 h
M14 melanoma = system: M14 melanoma
U251 CNS = system: U251 CNS
OVCAR-3 ovarian = system: OVCAR-3 ovarian
K-562 leukemia = system: K-562 leukemia
SF-539 CNS = system: SF-539 CNS
SR leukemia = system: SR leukemia
SK-OV-3 ovarian = system: SK-OV-3 ovarian
HCT-15 colon = system: HCT-15 colon
HOP-62 NSCLC = system: HOP-62 NSCLC
UACC-257 melanoma = system: UACC-257 melanoma
HS 578T breast = system: HS 578T breast
SK-MEL-2 melanoma = system: SK-MEL-2 melanoma
MDA-MB-231 breast = system: MDA-MB-231 breast
SK-MEL-5 melanoma = system: SK-MEL-5 melanoma
OVCAR-4 ovarian = system: OVCAR-4 ovarian
HOP-92 NSCLC = system: HOP-92 NSCLC
MALME-3M melanoma = system: MALME-3M melanoma
SNB-19 CNS = system: SNB-19 CNS
OVCAR-8 ovarian = system: OVCAR-8 ovarian
RXF 393 renal = system: RXF 393 renal
BT-549 breast = system: BT-549 breast
ACHN renal = system: ACHN renal
PC-3 prostate = system: PC-3 prostate
CAKI-1 renal = system: CAKI-1 renal
HCC-2998 colon = system: HCC-2998 colon
TK-10 renal = system: TK-10 renal
MDA-MB-435 = system: MDA-MB-435
CCRF-CEM leukemia = system: CCRF-CEM leukemia
A498 renal = system: A498 renal
MCF7 breast = system: MCF7 breast
UACC-62 melanoma = system: UACC-62 melanoma
IGROV1 ovarian = system: IGROV1 ovarian
SK-MEL-28 melanoma = system: SK-MEL-28 melanoma
OVCAR-5 ovarian = system: OVCAR-5 ovarian
786-0 renal = system: 786-0 renal
NCI-H23 lung = system: NCI-H23 lung
T-47D breast = system: T-47D breast
A549 NSCLC = system: A549 NSCLC
KM12 colon = system: KM12 colon
SW-620 colon = system: SW-620 colon
MOLT-4 leukemia = system: MOLT-4 leukemia
EKVX NSCLC = system: EKVX NSCLC
HL-60(TB) leukemia = system: HL-60(TB) leukemia
SN12C renal = system: SN12C renal
RPMI-8226 leukemia = system: RPMI-8226 leukemia
NCI-H226 lung = system: NCI-H226 lung
DU-145 prostate = system: DU-145 prostate
LOX IMVI melanoma = system: LOX IMVI melanoma
NCI-H460 lung = system: NCI-H460 lung
NCI-H522 lung = system: NCI-H522 lung
HCT-116 colon = system: HCT-116 colon
UO-31 renal = system: UO-31 renal
SNB-75 CNS = system: SNB-75 CNS
SF-295 CNS = system: SF-295 CNS
SF-268 CNS = system: SF-268 CNS
HT29 colon = system: HT29 colon
COLO 205 colon = system: COLO 205 colon

`O=c1ccc(N=Nc2ccccc2)ccc1Cl` gave a GI50 (M14 melanoma) of 2.63 µM, a TGI (M14 melanoma) of 12.7 µM and a GI50 (U251 CNS) of 2.78 µM. The TGI (U251 CNS) was 9.29 µM, the GI50 (OVCAR-3 ovarian) was 4.39 µM and the TGI (OVCAR-3 ovarian) was 15.6 µM. The GI50 (K-562 leukemia) was 1 µM, the TGI (K-562 leukemia) was > 100 µM and the GI50 (SF-539 CNS) was 5.9 µM. The TGI (SF-539 CNS) was 18.3 µM, the GI50 (SR leukemia) was 1.73 µM and the TGI (SR leukemia) was > 100 µM. The GI50 (SK-OV-3 ovarian) was 48 µM, the TGI (SK-OV-3 ovarian) was > 100 µM and the GI50 (HCT-15 colon) was 2.53 µM. The TGI (HCT-15 colon) was 8.07 µM, the GI50 (HOP-62 NSCLC) was 31.3 µM and the TGI (HOP-62 NSCLC) was > 100 µM. The GI50 (UACC-257 melanoma) was 11.5 µM, the TGI (UACC-257 melanoma) was 24 µM and the GI50 (HS 578T breast) was 21.4 µM. The TGI (HS 578T breast) was 62.7 µM, the GI50 (SK-MEL-2 melanoma) was 13.9 µM and the TGI (SK-MEL-2 melanoma) was 29.8 µM. It also gave a GI50 (MDA-MB-231 breast) of 9.01 µM, a TGI (MDA-MB-231 breast) of 21.2 µM and a GI50 (SK-MEL-5 melanoma) of 15.7 µM. For the same compound, the TGI (SK-MEL-5 melanoma) was 31.7 µM, the GI50 (OVCAR-4 ovarian) was 12.8 µM and the TGI (OVCAR-4 ovarian) was 25.9 µM. It also gave a GI50 (HOP-92 NSCLC) of 13.9 µM, a TGI (HOP-92 NSCLC) of 28.1 µM and a GI50 (MALME-3M melanoma) of 3.57 µM. It also gave a TGI (MALME-3M melanoma) of 12.4 µM, a GI50 (SNB-19 CNS) of 26.2 µM and a TGI (SNB-19 CNS) of 91.4 µM. The GI50 (OVCAR-8 ovarian) was 3.49 µM, the TGI (OVCAR-8 ovarian) was 13.1 µM and the GI50 (RXF 393 renal) was 8.19 µM. The TGI (RXF 393 renal) was 22.1 µM, the GI50 (BT-549 breast) was 3.22 µM and the TGI (BT-549 breast) was 9.77 µM. The GI50 (ACHN renal) was 3.11 µM, the TGI (ACHN renal) was 10.2 µM and the GI50 (PC-3 prostate) was 5.16 µM. For the same compound, the TGI (PC-3 prostate) was 18.7 µM, the GI50 (CAKI-1 renal) was 13 µM and the TGI (CAKI-1 renal) was 25.8 µM. For the same compound, the GI50 (HCC-2998 colon) was 12.2 µM, the TGI (HCC-2998 colon) was 26.4 µM and the GI50 (TK-10 renal) was 13.7 µM. The TGI (TK-10 renal) was 26.6 µM, the GI50 (MDA-MB-435) was 14.8 µM and the TGI (MDA-MB-435) was 29.6 µM. The GI50 (CCRF-CEM leukemia) was 1.39 µM, the TGI (CCRF-CEM leukemia) was 26.7 µM and the GI50 (A498 renal) was > 100 µM. For the same compound, the TGI (A498 renal) was > 100 µM, the GI50 (MCF7 breast) was 3.16 µM and the TGI (MCF7 breast) was 18 µM. For the same compound, the GI50 (UACC-62 melanoma) was 12.7 µM, the TGI (UACC-62 melanoma) was 25.6 µM and the GI50 (IGROV1 ovarian) was 13.8 µM. The TGI (IGROV1 ovarian) was 27.4 µM, the GI50 (SK-MEL-28 melanoma) was 14.5 µM and the TGI (SK-MEL-28 melanoma) was 27.9 µM. It also gave a GI50 (OVCAR-5 ovarian) of 15.4 µM, a TGI (OVCAR-5 ovarian) of 29.3 µM and a GI50 (786-0 renal) of 3.83 µM. It also gave a TGI (786-0 renal) of 13.6 µM, a GI50 (NCI-H23 lung) of 6.25 µM and a TGI (NCI-H23 lung) of 21.9 µM. The GI50 (T-47D breast) was 3.14 µM, the TGI (T-47D breast) was 26.4 µM and the GI50 (A549 NSCLC) was 17 µM. It also gave a TGI (A549 NSCLC) of 38.7 µM, a GI50 (KM12 colon) of 12.7 µM and a TGI (KM12 colon) of 32.4 µM. It also gave a GI50 (SW-620 colon) of 3.14 µM, a TGI (SW-620 colon) of 12.8 µM and a GI50 (MOLT-4 leukemia) of 0.749 µM. For the same compound, the TGI (MOLT-4 leukemia) was > 100 µM, the GI50 (EKVX NSCLC) was 11.5 µM and the TGI (EKVX NSCLC) was 29.1 µM. For the same compound, the GI50 (HL-60(TB) leukemia) was 18.1 µM, the TGI (HL-60(TB) leukemia) was 87.1 µM and the GI50 (SN12C renal) was 12.9 µM. It also gave a TGI (SN12C renal) of 25.7 µM, a GI50 (RPMI-8226 leukemia) of 3.76 µM and a TGI (RPMI-8226 leukemia) of 27.4 µM. The GI50 (NCI-H226 lung) was 19.6 µM, the TGI (NCI-H226 lung) was 66.1 µM and the GI50 (DU-145 prostate) was 15.5 µM. For the same compound, the TGI (DU-145 prostate) was 29 µM, the GI50 (LOX IMVI melanoma) was 2.24 µM and the TGI (LOX IMVI melanoma) was 6.74 µM. It also gave a GI50 (NCI-H460 lung) of 15.4 µM, a TGI (NCI-H460 lung) of 37.7 µM and a GI50 (NCI-H522 lung) of 1.8 µM. For the same compound, the TGI (NCI-H522 lung) was 3.67 µM, the GI50 (HCT-116 colon) was 2.61 µM and the TGI (HCT-116 colon) was 9.49 µM. The GI50 (UO-31 renal) was 7.39 µM, the TGI (UO-31 renal) was 20.7 µM and the GI50 (SNB-75 CNS) was 15.9 µM. It also gave a TGI (SNB-75 CNS) of 92.3 µM, a GI50 (SF-295 CNS) of 18.1 µM and a TGI (SF-295 CNS) of 46.6 µM. For the same compound, the GI50 (SF-268 CNS) was 18.8 µM, the TGI (SF-268 CNS) was 43.5 µM and the GI50 (HT29 colon) was 5.62 µM. For the same compound, the TGI (HT29 colon) was 19.2 µM, the GI50 (COLO 205 colon) was 5.07 µM and the TGI (COLO 205 colon) was 18.4 µM.
